Laboratory results published in patent US9983196B2, “Compositions and methods for optimizing drug hydrophobicity and drug delivery to cells” (Bioelastics, Inc., priority 2009, dated 2018).

Tests used:
[1] = negatively stained, electron micrograph; cited from earlier work
[2] = cited from earlier work
[3] = cited from earlier work; remark: listed apart in the source
[4] = differential scanning calorimetry of the inverse temperature transition: ΔGHA-based hydrophobicity scale; assay type: physicochemical
Text: Described herein is a hydrophobicity scale based on the change in Gibbs free energy of hydrophobic association. Increase in entropy of water drives endothermic phase transition of hydrophobic association. For a narrow phase transition the chemical potential, t, of the molecules in the phase separated, hydrophobically associated state, 1.IHA, and the solution, hydrophobically dissociated state, 1.1HD, are equal. Therefore, at constant temperature and pressure, i.e., at equilibrium, the change in Gibbs free energy for the phase transition is zero, (ΔGt)TP=0 and ΔHT=TtΔSt. For the breadth of the transition of elastic-contractile model proteins [ECMP], it is written: ΔHt≈TtΔSt, (1) i.e., the heat of the transition, ΔHt in kcal/mol, is approximated by the product of the temperature of the transition, Tt in ° K, times the entropy change attending the transition, ΔSt in kcal/° K-mol.
The van der Walls interaction is exothermic for the hydrophobic association attending the ITT, yet the ITT is endothermic. […] The derivation of the change in Gibbs free energy for hydrophobic association, ΔGHA, and evaluation by inverse temperature transition of hydrophobic association has been reported previously (D. W. Urry, The Change in Gibbs Free Energy for Hydrophobic Association Derivation and Evaluation by means of Inverse Temperature Transitions. Chem. Phys. Letters 399 (2004) 177-183.), and is given more simply below. […]
Given the above approximation, but also recognizing that ASt is a calculated result from the differential scanning calorimetric measurement of ΔHt, we define the change in Gibbs free energy for hydrophobic association, ΔGHA, as,
The differential scanning calorimetry (DSC) data of ΔHt(GVGVP) (SEQ ID NO:4) and ΔHt(GVGIP) (SEQ ID NO:8) in FIG. 1 of Luan and Urry, J Phys Chem 95:7896-7900, 1991 provide a specific example of the difference that defines ΔGHA. […] This is the same value of 1.5 kcal/mol-CH2 for the addition of a single CH2 as determined by Butler for the alcohol series.
Once the values are determined by difference with ΔHt(GVGVP) (SEQ ID NO:4) as represented in FIG. 1E, they are translated so the reference polymer is taken as (GGGVP (SEQ ID NO:11), as this residue is considered to be close to neutral, being neither polar nor apolar. For use of (GGGVP) (SEQ ID NO:11) as the reference, i.e., ΔHt(GGGVP) (SEQ ID NO:11)=AHt(ref), in Table 3 and FIG. 13, the change in Gibbs free energy for hydrophobic association is indicated as ΔG^oHA, i.e., […]
In this case most of the ΔG^oHA values have been obtained by taking the experimental Tt, suitably extrapolated to fx=1 to obtain Tt, and reading the value of ΔG^oHA from the sigmoid curve of FIG. 13. […]

contribution to change in Gibbs free energy for hydrophobic association on phosphorylation of Ser [4] | Substance | nominal size of nanoparticles [1] [nm] | Tt ([2]; guest residue χ in poly[fχ(GχGVP),fv(GVGVP)], extrapolated to fχ=1, some cells marked (Tt)) | Tt linearly extrapolated to fX = 1 ([2]; poly[fV(VPGVG),fX(VPGXG)], 40 mg/ml polymer, 0.15N NaCl, 0.01M phosphate pH 7.4) [°C] | ΔG°HA(GχGVP) (from graph) ([3]; Tt used to obtain value from experimental sigmoid curve of Tt versus ΔG°HA) | ΔG°HA from FIG. 13 ([3]; gross estimates (±0.5 kcal/mol) from Tt and curve, 40 mg/ml polymer, 0.15N NaCl, 0.01M phosphate pH 7.4)
 | (GVGVPGVGFPGEGFPGVGVPGVGFPGFGFP)42 (GVGVP) (GVGVPGVGFPGEGFPGVGVPGVGFPGFGFPGVGVP; repeat (1)..(30) the first 30 residues are repeated 42 times) [ECMP polymer of 253 pentamers forming drug delivery nanoparticles] | 50 |  |  |  | 
about +8 kcal/mol | Ser (PO4^−2) |  | 860 (Tt) ° C. | 860 | ≈+8.0 (from graph) kcal/mol-pentamer | +8.0 kcal/mol
